In US11629105B2, “Plant treatment composition” (Croda International Plc, priority 2016, dated 2023):
Read-outs that look alike come from different tables or passages of the source.

Columns and labels:
[1] = Procedure: The solubility of other substituted ureas and substituted thioureas was tested in this solvent.
[2] = Stability of emulsion of urea derivative solution with ATLOX 4991; assay type: physicochemical
[3] = Water solubility of solvents (OECD 105); assay type: physicochemical; conditions: solvent in water; for solubility: water, thermodynamic from solid
[4] = Solvent screening for ability to dissolve diphenyl urea (DPU); assay type: physicochemical; conditions: solubility of diphenyl urea (DPU) in the named solvent
[5] = 2% w/w urea derivative in AGNIQUE AMD10

CCN(C(=O)N(CC)c1ccccc1)c1ccccc1 [1,3-diethyl-1,3-diphenyl urea]
Fully Soluble in AGNIQUE AMD10? (2% w/w urea derivative) [1, 5]: Yes | Emulsion with ATLOX 4991 stable? (4 wks ambient) [2]: Yes

CCCCCCCCCCCCN1CCCC1=O [1-Dodecyl-2-pyrrolidone, 1-dodecyl-2-pyrrolidone]
solubility [3]: < 2000 µg/mL

CCCCCCCCN1CCCC1=O [N-octylpyrrolidone]
solubility [3]: < 2000 µg/mL

NC(=O)Nc1ccccc1 [N-phenyl urea]
Fully Soluble in AGNIQUE AMD10? (2% w/w urea derivative) [1]: Yes | Emulsion with ATLOX 4991 stable? (4 wks ambient) [2]: Yes

O=C(NCO)NCO [N,N′-bis(hydroxymethyl) urea]
Fully Soluble in AGNIQUE AMD10? (2% w/w urea derivative) [1]: No | solubility in AGNIQUE AMD10 [1]: < 2 % w/w

CCCCOC(=O)CCCCC(=O)OCCCC [CETIOL ® B, Dibutyladipate]
DPU Solubility comments [4]: Effectively insoluble

CCCCNC(=S)NCCCC [N,N′-dibutylthiourea]
Fully Soluble in AGNIQUE AMD10? (2% w/w urea derivative) [1]: Yes | Emulsion with ATLOX 4991 stable? (4 wks ambient) [2]: Yes

O=C1NCCCN1 [N,N′-trimethylene urea]
Fully Soluble in AGNIQUE AMD10? (2% w/w urea derivative) [1]: No | solubility in AGNIQUE AMD10 [1]: < 2 % w/w

CCCCCCCCCC(=O)N(C)C [AGNIQUE ® AMD10, Capric acid dimethylamide]
Water solubility (OECD 105) [3]: 574 µg/mL | solubility [3]: < 1000 µg/mL

CC(O)COc1ccccc1 (stereo not drawn) [DOWANOL ™ PPh, 1-phenoxypropan-2-ol]
DPU Solubility comments [4]: Effectively insoluble

CCCCOC(C)COC(C)COC(C)CO (stereo not drawn) [DOWANOL ™ TPnB, Tripropylene glycol n-Butyl ether]
DPU Solubility comments [4]: Effectively insoluble

O=C(NC1CCCCC1)NC1CCCCC1 [N,N′-dicyclohexyl urea]
Fully Soluble in AGNIQUE AMD10? (2% w/w urea derivative) [1, 5]: No

CCNC(=O)NCC [1,3-diethylurea]
Fully Soluble in AGNIQUE AMD10? (2% w/w urea derivative) [1]: Yes | Emulsion with ATLOX 4991 stable? (4 wks ambient) [2]: Yes

CCCCCCCC(=O)OC [AGNIQUE ® ME890, Methyl octanoate]
DPU Solubility comments [4]: Effectively insoluble
